How the values were obtained:
[1] = tested on: HT-29; assay: Cytotoxicity against human HT-29 cells after 48 hrs by SRB assay; type: functional; conditions: HT-29, 48 h
[2] = Cytotoxicity against […] cells after 48 hrs by SRB assay; type: cell-based, Cricetulus griseus; conditions: chinese hamster, CHO-K1 cells
[3] = tested on: SF-268; assay: Cytotoxicity against human SF268 cells after 48 hrs by SRB assay; type: functional; conditions: SF-268, 48 h
[4] = tested on: NCI-H460; assay: Cytotoxicity against human H460 cells after 48 hrs by SRB assay; type: functional; conditions: NCI-H460, 48 h
[5] = tested on: MCF7; assay: Cytotoxicity against human MCF7 cells after 48 hrs by SRB assay; type: functional; conditions: MCF7, 48 h

| Compound | GI50 [1] | GI50 at 48 h [2] | GI50 [3] | GI50 [4] | GI50 [5] |
| --- | --- | --- | --- | --- | --- |
| C=C1CCCC(C)(C)C1CCC1(C)C=Cc2cc(O)cc(OC)c2O1 (stereo not given) [METACHROMIN U] | 30 µM | 27 µM | 32 µM | 37 µM | 29 µM |
| C=C1CCCC(C)(C)C1CC/C(C)=C/Cc1cc(O)ccc1O (stereo not given) [METACHROMIN V] | 10 µM | 2.1 µM | 5.1 µM | 5.1 µM | 3.2 µM |
| C=C1CCCC(C)(C)C1CCc1ccc2c(c1)C(=O)C=C(OC)C2=O (stereo not given) [METACHROMIN W] | 130 µM | 89 µM | 104 µM | 50 µM | 107 µM |
| CC(=O)O[C@H]1C(=O)[C@@]2(C)[C@H]([C@H](OC(=O)c3ccccc3)[C@]3(O)C[C@H](OC(=O)[C@H](O)[C@@H](NC(=O)c4ccccc4)c4ccccc4)C(C)=C1C3(C)C)[C@]1(OC(C)=O)CO[C@@H]1C[C@@H]2O [PACLITAXEL] | 0.012 µM | 5.9 µM | 0.012 µM | 0.024 µM | 0.012 µM |
| CN[C@@H]1C[C@H]2O[C@@](C)([C@@H]1OC)n1c3ccccc3c3c4c(c5c6ccccc6n2c5c31)C(=O)NC4 [STAUROSPORINE] | 3.6 µM | 0.13 µM | 0.044 µM | 3.6 µM | 11 µM |

— ChEMBL document CHEMBL1782002, “Metachromins U-W: cytotoxic merosesquiterpenoids from an Australian specimen of the sponge Thorecta reticulata” (J Nat Prod, 2011)
